Experimental data: patent publication US7718801B2, “Substituted imidazole derivative” (Banyu Pharmaceutical Co., Ltd., priority 2004, dated 2010)

How the values were obtained:
[1] = biological target: T1, PLK1-T210D (human active type PLK1) (Homo sapiens, UniProt P53350, T210D); assay: Measurement of the inhibitory effect against PLK1-T210D activity ([γ-33P]ATP, CDC25C-derived peptide substrate); type: biochemical; conditions: 50 μM ATP, 50 μM substrate peptide, 25° C., 20 minutes
T1 construct: a baculovirus expressing full-length human PLK1 of which N terminus is fused with GST; GST (glutathione S-transferase) (N); made in house; host or cells: insect cells (baculovirus)
Protocol: It has been known that 210th codon of human PLK1 which originally codes for threonine can be changed to an active type by altering the site so as to code aspartic acid [Molecular and Cellular Biology (Mol. Cell. Biol.), 17th edition, 3408 (1997)]. In order to obtain a human active type PLK1 protein, cDNA of mutated PLK1 (PLK1-T210D) of which 210th codon codes aspartic acid was prepared, by substituting a base in the 210th codon of human PLK1 cDNA. This PLK1-T210D cDNA was integrated into a baculovirus expression vector in the same manner as in the above, expressed in insect cells, and then was purified.
For the measurement of the PLK1 and PLK1-T210D activity, used as a substrate was a synthetic peptide (aspartic acid-glutamic acid-leucine-methionine-glutamic acid-alanine-serine-phenylalanine-alanine-aspartic acid-glutamine-aspartic acid-alanine-lysine), where the serine surrounding sequence of the amino acid sequence No. 198 of CDC25C, which have been reported as the site for PLK1 substrate [EMBO Report, 3rd edition, 341 (2002)], is altered.
The reaction was carried out in accordance with the method of Toyoshima-Morimoto et al. [Nature, Vol. 410, 215-220, (2001)]. The volume of the reaction solution was 21.1 μL and the composition of the reaction buffer was 20 mM of tris-hydrochloric acid buffer (pH 7.4)/10 mM magnesium chloride/0.5 mM dithiothreitol/1 mM EGTA (ethylene glycol-bis(beta-aminoethylether)-N,N,N′,N′,-tetraacetic acid). Thereto, purified PLK 1, 50 μM of the substrate peptide, 50 μM of non-labeled adenosine triphosphate (ATP), and 1 μCi of [γ-33P]-labeled ATP (2000 to 4000 Ci/mmole) were added to react at 25° C. for 20 minutes. Then, 10 μL of 350 mM phosphate buffer was added to the reaction system to terminate the reaction. The resultant solution was spotted onto a multi-screen phosphocellulose filter on a 96-well plate. After the phosphocellulose filter is washed with 75 mM phosphate buffer and then dried, the radioactivity of the substrate was measured with a liquid scintillation counter. The non-labeled ATP and [γ-33P]-labeled ATP was purchased from Amersham Bioscience Corp. and the multi-screen phosphocellulose filter from Millipore Corp., respectively.
The addition of the compound of the present invention to the reaction system was carried out by adding 1.1 μL of the solution as prepared by preliminarily dissolving in dimethylsulfoxide at a 20-fold concentration of the final concentration. A control was provided by adding 1.1 μL of dimethylsulfoxide to the reaction system.

HeLaS3 cells = assay: Inhibitory activity against PLK1 at cellular level: ratio of cells arrested at M phase (phospho-histone H3 Ser10, mitotic index); type: cell-based; conditions: Homo sapiens, HeLa S3; HeLaS3 cells synchronized at G1/S, 12 hours with compound; concentration inducing 50% of maximal M phase arrest; read-out: Inhibitory effect against cell proliferation
Protocol: For the measurement of the PLK 1 inhibitory effect of the compound at the cellular level, human uterine cervix cell lines HeLaS3 cells were used. The HeLaS3 cell was obtained from American Type Culture Collection (ATTC), and cultured in a CO2-incubator of saturated steam by using Dulbecco's Modified Eagle's Medium containing 10% fetal calf serum at 37° C. in the presence of 5% CO2.
It has been reported that PLK 1 plays an important role in various stages of mitotic phase (M-phase) in mammalian cells (Nature Review Molecular Cell Biology, Vol. 5, 429, (2004)). In fact, when the mammalian cells are treated with PLK 1 siRNA to control the expression level, the cell cycle progression is inhibited and thus the cell is arrested at M phase. Also, when examining the phosphorylation level of serine, 10th residue of histone H3, which is thought to be required for a chromosome condensation in M phase, it is observed that the level is enhanced to a high level. Thus, after treating the cell with the compound according to the present invention; the phosphorylation level of histone H3 was examined by an indirect fluorescent antibody technique, the cells arrested at M phase were identified by using the level thereof as an indicator to analyze the ratio of cells arrested at M phase; and then EC50 value of each compound was calculated to evaluate the PLK 1 inhibitory effect at a cellular level.
First, HeLaS3 cells synchronized at the G1/S phase by a double-thymidine technique were seeded into lysine-treated 96-well plate (Falcon Corp.) at the ratio of 8,000 per one well, and allowed to stand still in the above-mentioned CO2 incubator. […] After terminating the reaction, the reaction solution in wells was removed and replaced with 100 μL of PBS, and then fluorescence images were captured by using InCell Analyzer 1000 (manufactured by GE Amersham) to analyze the ratio of the cells arrested at M phase (Mitotic index) at different view angles. […]

full-length human PLK1 = biological target: T2, full-length human PLK1 (Homo sapiens, UniProt P53350); assay: Measurement of the inhibitory effect against PLK1 activity ([γ-33P]ATP, CDC25C-derived peptide substrate); type: biochemical; conditions: 50 μM ATP, 50 μM substrate peptide, 25° C., 20 minutes
T2 construct: a baculovirus expressing full-length human PLK1 of which N terminus is fused with GST; GST (glutathione S-transferase) (N, cleaved yes); made in house; host or cells: Spodoptera frugiperda Sf9 insect cells (baculovirus)
Protocol: First, a baculovirus expressing full-length human PLK1 of which N terminus is fused with GST (glutathione S-transferase) was prepared, and then the PLK1 infected into a Spodoptera frugiperda (Sf)9 insect cell was highly expressed as a GST-fused protein. The cells were recovered and suspended in a lysis buffer (50 mM tris-hydrochloric acid buffer (pH 7.4)/150 mM sodium chloride/1 mM EDTA (ethylenediamine tetraacetic acid)/1 mM dithiothreitol/0.1% polyoxyethylene sorbitan monolaurate) to break cells with sonicator, and supernatant was recovered after a centrifugation. The supernatant was reacted on glutathione sepharose beads, and then the beads were washed with a lysis buffer. Thereafter, the beads were reacted in a lysis buffer containing Precision Protease to recover supernatant. […]
The reaction was carried out in accordance with the method of Toyoshima-Morimoto et al. [Nature, Vol. 410, 215-220, (2001)]. […] After the phosphocellulose filter is washed with 75 mM phosphate buffer and then dried, the radioactivity of the substrate was measured with a liquid scintillation counter. […]

T1 sequence (P53350 whole entry T210D, the tested form may be a part): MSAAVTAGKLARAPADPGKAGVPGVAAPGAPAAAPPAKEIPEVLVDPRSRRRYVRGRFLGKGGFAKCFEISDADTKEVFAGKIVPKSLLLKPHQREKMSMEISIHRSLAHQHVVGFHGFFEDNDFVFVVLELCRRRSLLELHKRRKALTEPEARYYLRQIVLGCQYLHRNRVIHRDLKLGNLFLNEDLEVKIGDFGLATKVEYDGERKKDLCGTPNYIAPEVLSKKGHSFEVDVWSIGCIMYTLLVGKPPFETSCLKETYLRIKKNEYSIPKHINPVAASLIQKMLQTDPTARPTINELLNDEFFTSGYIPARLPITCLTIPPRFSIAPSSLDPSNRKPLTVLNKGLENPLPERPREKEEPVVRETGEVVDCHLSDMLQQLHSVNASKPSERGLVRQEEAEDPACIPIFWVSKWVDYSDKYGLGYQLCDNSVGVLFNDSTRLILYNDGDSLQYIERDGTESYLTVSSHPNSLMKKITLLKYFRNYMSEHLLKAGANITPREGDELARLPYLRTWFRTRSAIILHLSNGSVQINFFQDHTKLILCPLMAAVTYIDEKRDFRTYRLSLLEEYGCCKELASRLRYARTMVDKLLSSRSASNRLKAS
T2 sequence (P53350 whole entry, the tested form may be a part): as the sequence (P53350 whole entry T210D, the tested form may be a part) above, with D210T counted along it

| IC50 [1] | EC50 (HeLaS3 cells) | IC50 (full-length human PLK1) | SMILES |
| --- | --- | --- | --- |
| 16 nM | 310 nM |  | C[C@H](Nc1ncc(C#N)c(-c2cnc3c(C(F)(F)F)cccn23)n1)c1ccccc1 [Example 36, 2-{[(1S)-1-phenylethyl]amino}-4-[8-(trifluoromethyl)imidazo[1,2-a]pyridin-3-yl]-5-pyrimidinecarbonitrile] |
| 42 nM |  |  | C[C@H](Nc1ncc(Br)c(-c2cnc3c(Cl)cccn23)n1)c1ccccc1 [Example 28, 5-bromo-4-(8-chloroimidazo[1,2-a]pyridin-3-yl)-N-[(1S)-1-phenylethyl]-2-pyrimidinamine] |
| 47 nM | 340 nM |  | Cc1cccn2c(-c3nc(N[C@@H](C)c4ccc(N)cc4)ncc3C#N)cnc12 [Example 112, 2-{[(1S)-1-(4-aminophenyl)ethyl]amino}-4-(8-methylimidazo[1,2-a]pyridin-3-yl)pyrimidine-5-carbonitrile] |
| 26 nM |  | 43 nM | Cc1cccn2c(-c3nc(N[C@@H](C)c4ccccc4)ncc3C#N)cnc12 [Example 8, 4-(8-methylimidazo[1,2-a]pyridin-3-yl)-2-{[(1S)-1-phenylethyl]amino}-5-pyrimidinecarbonitrile] |
| 41 nM | 180 nM |  | COc1cccn2c(-c3nc(N[C@@H](C)c4ccc(N5CCNCC5)cc4)ncc3C#N)cnc12 [Example 158, 4-(8-methoxyimidazo[1,2-a]pyridin-3-yl)-2-{[(1S)-1-(4-piperazin-1-ylphenyl)ethyl]amino}pyrimidine-5-carbonitrile] |
